Data from patent publication US20030226158A1, “Cds1 knockout cells and mice, and their utilization” (priority 2000, published 2003).

Test system: p53 protein
Test: X-ray irradiation-induced p53 protein expression in ES cells, western blotting
Assay type: cell-based, mouse
Conditions: X-ray irradiated, western blotting with antibody against p53
Protocol: The analysis was done by western blotting.
ES cell lines in which one or both Cds1 (Chk2) alleles were inactivated (Cds1 (Chk2)+/− and Cds1 (Chk2)−/−) were treated with trypsin and counted. Then, a constant number of ES cells were plated in 6-well plates in which feeder cells had been planted in advance. MEF (mouse embryonic fibroblast) was used as feeder cells. The cells were treated with X ray and cultured in an CO2 incubator for 6 hours. Then, a cell extract was prepared, the proteins were separated by SDS-PAGE, and transferred to a PVDF membrane. p53 protein was quantified by conducting western blotting using an antibody against p53.

For `Cn1c(=O)c2c(ncn2C)n(C)c1=O` [caffeine], the “induction of p53 expression after irradiation” value (Cds1-/- ES cells) was “inhibited” and the “induction of p53 expression after irradiation” value (wild type ES cells) was “inhibited”.
